Assay results reported in patent US8455532B2, “Pyrazolyl acrylonitrile compounds and uses thereof” (Shenyang Research Institute of Chemical Industry Co., Ltd., priority 2009, dated 2013).
Where two headings read alike, the source gives them in different places.

Key:
[1] = tested on: egg of spider mite (Tetranychus cinnabarinus); experiment: Test against egg of spider mite, spray, incubation inhibition; type: in vivo; conditions: read-out: Acaricidal activity against eggs of spider mites (incubation inhibition rate, %)
Protocol: (§1) According to the solubility of test compounds, the compounds are dissolved in acetone or dimethyl sulfoxide, and then diluted with 0.1% aqueous solution of Tween 80 to form 50 ml test liquid, the content of acetone or dimethyl sulfoxide in the total solution is not more than 10%.
Two true leaves of bean plants were taken and one true leaf was removed. Then ten healthy female adult spider mites were put into the true leaf. The adult spider mites were removed after 24 h and the eggs were investigated. The solution of certain concentrations of test compounds was sprayed using a sprinkler and repeated three times. The untreated eggs were all incubated after 5 days. The unincubation of treated eggs in leaf were observed, and incubation inhibition rate of the eggs were determined.
According to the above method, high acaricidal compound 5.1, 90.1 in present invention, and known high acaricidal compound KC1 were chosen to parallel activity test against eggs of spider mites.

[2] = tested on: adult spider mites (Tetranychus cinnabarinus); experiment: Test against adult spider mite, spray on bean leaves, mortality after 72 h; type: in vivo; conditions: for mortality at 0.63 ppm / mortality at 2.5 ppm / mortality at 5 ppm / mortality at 10 ppm / mortality at 1.25 ppm: Tetranychus cinnabarinus, read-out: Acaricidal activity against adult spider mites (mortality, %)
Protocol: as §1
The adult spider mites (Tetranychus cinnabarinus) were put into two true leaves of bean plants. After the number of mites were investigated, the solution of certain concentrations of test compounds was sprayed using a sprinkler and repeated three times. Then the leaves were maintained in standard observation room. After 72 h the survival mites in each leaf were observed, and mortality of the mites was determined.
According to above method, the representative compounds of this invention, compound KC, (compound 30 in JP2003201280A, E configuration), KC2 (compound 31 in JP2003201280A, Z configuration) and KC3 (compound 24 in CN101367784A) were chosen to parallel activity test against adult spider mites.

[3] = tested on: deutonymph of spider mite (Tetranychus cinnabarinus); experiment: Test against deutonymph of spider mite, spray, mortality after 72 h; type: in vivo; conditions: read-out: Acaricidal activity against deutonymph of spider mites (mortality, %)
Protocol: as §1
Ten healthy female adult spider mites (Tetranychus cinnabarinus) were put into two true leaves of bean plants. The adult spider mites were removed after 24 h and the eggs were continued incubating. After ten days, the number of deutonymph were investigated and recorded. The solution of certain concentrations of test compounds was sprayed using a sprinkler and repeated three times. Then the deutonymph of spider mites were maintained in standard observation room. After 72 h, the survival mites in each leaf were observed, and mortality of the mites was determined.
According to above method, high acaricidal compound 5.1, 90.1 in present invention, and known high acaricidal compound KC1 were chosen to parallel activity test against deutonymph of spider mite.

[4] = tested on: peach aphid (Myzus peisicae Sulzer); experiment: Test against peach aphid, spray on cabbage leaves, mortality after 72 h; type: in vivo
Protocol: as §1
The cabbage leaves with peach aphids were taken and after the number of peach aphids were investigated, the solution of certain concentrations of test compounds was sprayed using a sprinkler and repeated three times. Then the leaves were maintained in standard observation room. After 72 h, the survival peach aphids were observed, and mortality of the peach aphids was determined.

spider mites = experiment: Test of systemic activity against spider mite through root absorbtion; type: in vivo; conditions: root dip 24 h, 72 h after infestation
Protocol: The test compounds are dissolved in acetone, and then diluted with 0.1% aqueous solution of Tween 80 to form test solution in different concentration and every treatment was repeated three times. Water is blank control. The 10 mL test compound solution was added into the tube. Two true leaves bean plants were taken and the soil in the root was removed. The bean plant was dipped into the test solution in different concentration. After absorbing 24 h, 30 to 50 spider mites were put onto the true leaves. Then the bean plants were maintained in observation room at 25±1° C. After 72 h, the death and survival mites in each leaf was observed, the mortality of the mites and systemic activity was determined.

[5] = in JP2003206280A; cited from earlier work
spider mite = conditions: 400 ppm, in CN101367784A; cited from earlier work

Work on `CCn1nc(C)cc1C(O)=C(C#N)c1ccc(C(C)(C)C)cc1` [Compound 1, 3-(1-ethyl-3-methylpyrazol-5-yl)-2-(4-tertbutylphenyl)-3-hydroxy-acrylonitrile] yielded a melting point of 70 to 72 °C.
Compound `CCn1nc(C)cc1C(OC(=O)C(C)(C)C)=C(C#N)c1ccc(C(C)(C)C)cc1` [Compound 5.1] has an inhibition at 2.5 ppm [1] of 66%, an inhibition at 5 ppm [1] of 100% and an inhibition at 10 ppm [1] of 100%. For the same compound, the “Acaricidal activity against adult spider mites (mortality, %)” value (from here on “Acaricidal activity … (mortality, %)”) ([2]; 1.25 ppm, spray) was 98%, the mortality at 0.63 ppm ([2]; 0.63 ppm, spray) was 42% and the mortality at 2.5 ppm ([2]; 2.5 ppm, spray) was 100%. It also gave a mortality at 5 ppm ([2]; 5 ppm, spray) of 100%, a mortality at 10 ppm ([2]; 10 ppm, spray) of 100% and a mortality at 0.16 ppm ([3]; 0.16 ppm, spray) of 94%. The mortality at 0.63 ppm ([3]; 0.63 ppm, spray) was 100% and the mortality at 2.5 ppm ([3]; 2.5 ppm, spray) was 100%.
For `CCn1nc(C)cc1C(OC(=O)C(C)(C)C)=C(C#N)c1ccc(C(C)(C)C)cc1` [Compound 5.2], the “Acaricidal activity … (mortality, %)” value ([2]; 0.63 ppm, spray) was 56%, the “Acaricidal activity … (mortality, %)” value ([2]; 1.25 ppm, spray) was 65% and the “Acaricidal activity … (mortality, %)” value ([2]; 2.5 ppm, spray) was 87%. For the same compound, the “Acaricidal activity … (mortality, %)” value ([2]; 5 ppm, spray) was 100% and the “Acaricidal activity … (mortality, %)” value ([2]; 10 ppm, spray) was 100%.
With `CCOC(=O)OC(=C(C#N)c1ccc(C(C)(C)C)cc1)c1cc(C)nn1CC` [Compound 17.1] the melting point was 96 to 97 °C.
In the case of `CCn1nc(C)c(C)c1C(O)=C(C#N)c1ccc(C(C)(C)C)cc1` [Compound 39, 3-(1-ethyl-3,4-dimethylpyrazol-5-yl)-2-(4-tertbutylphenyl)-3-hydroxyl-acrylonitrile], the melting point was 86 to 88 °C.
In the case of `CCn1nc(C)c(C)c1C(OC(=O)C(C)(C)C)=C(C#N)c1ccc(C(C)(C)C)cc1` [Compound 42.1], the “Acaricidal activity … (mortality, %)” value ([2]; 0.63 ppm, spray) was 20%, the “Acaricidal activity … (mortality, %)” value ([2]; 1.25 ppm, spray) was 93% and the mortality at 2.5 ppm ([2]; 2.5 ppm, spray) was 100%. It also gave a mortality at 5 ppm ([2]; 5 ppm, spray) of 100% and a mortality at 10 ppm ([2]; 10 ppm, spray) of 100%.
In the case of `CCn1nc(C)c(C)c1C(OC(=O)C(C)(C)C)=C(C#N)c1ccc(C(C)(C)C)cc1` [Compound 42.2], the “Acaricidal activity … (mortality, %)” value ([2]; 0.63 ppm, spray) was 51%, the “Acaricidal activity … (mortality, %)” value ([2]; 1.25 ppm, spray) was 70% and the “Acaricidal activity … (mortality, %)” value ([2]; 2.5 ppm, spray) was 100%. For the same compound, the “Acaricidal activity … (mortality, %)” value ([2]; 5 ppm, spray) was 100% and the “Acaricidal activity … (mortality, %)” value ([2]; 10 ppm, spray) was 100%.
`CCn1nc(C)c(C)c1C(OC(=O)C1CC1)=C(C#N)c1ccc(C(C)(C)C)cc1` [Compound 44.2] gave a mortality at 0.63 ppm ([2]; 0.63 ppm, spray) of 65%, a mortality at 1.25 ppm ([2]; 1.25 ppm, spray) of 97% and a mortality at 2.5 ppm ([2]; 2.5 ppm, spray) of 100%. The mortality at 5 ppm ([2]; 5 ppm, spray) was 100% and the mortality at 10 ppm ([2]; 10 ppm, spray) was 100%.
For `CCn1nc(C)c(C)c1C(OC(=O)C1CCC1)=C(C#N)c1ccc(C(C)(C)C)cc1` [Compound 50.1], the mortality at 0.63 ppm ([2]; 0.63 ppm, spray) was 93%, the mortality at 1.25 ppm ([2]; 1.25 ppm, spray) was 100% and the mortality at 2.5 ppm ([2]; 2.5 ppm, spray) was 100%. It also gave a mortality at 5 ppm ([2]; 5 ppm, spray) of 100% and a mortality at 10 ppm ([2]; 10 ppm, spray) of 100%.
For `CCOC(=O)OC(=C(C#N)c1ccc(C(C)(C)C)cc1)c1c(C)c(C)nn1CC` [Compound 54.1], the mortality at 1.25 ppm ([2]; 1.25 ppm, spray) was 100%, the mortality at 2.5 ppm ([2]; 2.5 ppm, spray) was 100% and the mortality at 5 ppm ([2]; 5 ppm, spray) was 100%. It also gave a mortality at 10 ppm ([2]; 10 ppm, spray) of 100%.
For `CCn1nc(C)c(F)c1C(O)=C(C#N)c1ccc(C(C)(C)C)cc1` [Compound 81, 3-(1-ethyl-4-fluoro-3-methylpyrazol-5-yl)-2-(4-tertbutylphenyl)-3-hydroxy-acrylonitrile], the mortality at 600 ppm [4] was 60%.
For `CCn1nc(C)c(Cl)c1C(OC(=O)C(C)(C)C)=C(C#N)c1ccc(C(C)(C)C)cc1` [Compound 90.1], the inhibition at 2.5 ppm [1] was 73%, the inhibition at 5 ppm [1] was 100% and the inhibition at 10 ppm [1] was 100%. The “Acaricidal activity … (mortality, %)” value ([2]; 0.63 ppm, spray) was 55%, the mortality at 1.25 ppm ([2]; 1.25 ppm, spray) was 100% and the mortality at 2.5 ppm ([2]; 2.5 ppm, spray) was 100%. The mortality at 5 ppm ([2]; 5 ppm, spray) was 100%, the mortality at 10 ppm ([2]; 10 ppm, spray) was 100% and the “Systemic activity against spider mites through root absorbtion (mortality, %)” value (shortened to “Systemic activity … (mortality, %)”) (spider mites; 50 ppm) was 66%. The “Systemic activity … (mortality, %)” value (spider mites; 100 ppm) was 98%, the “Systemic activity … (mortality, %)” value (spider mites; 200 ppm) was 100% and the mortality at 0.16 ppm ([3]; 0.16 ppm, spray) was 82%. The mortality at 0.63 ppm ([3]; 0.63 ppm, spray) was 90% and the mortality at 2.5 ppm ([3]; 2.5 ppm, spray) was 100%.
In the case of `CCn1nc(C)c(Cl)c1C(OC(=O)C(C)(C)C)=C(C#N)c1ccc(C(C)(C)C)cc1` [Compound 90.2], the “Acaricidal activity … (mortality, %)” value ([2]; 0.63 ppm, spray) was 28%, the “Acaricidal activity … (mortality, %)” value ([2]; 1.25 ppm, spray) was 100% and the “Acaricidal activity … (mortality, %)” value ([2]; 2.5 ppm, spray) was 100%. For the same compound, the “Acaricidal activity … (mortality, %)” value ([2]; 5 ppm, spray) was 100% and the “Acaricidal activity … (mortality, %)” value ([2]; 10 ppm, spray) was 100%.
With `CCOC(=O)OC(=C(C#N)c1ccc(C(C)(C)C)cc1)c1c(Cl)c(C)nn1CC` [Compound 101.1] the mortality at 1.25 ppm ([2]; 1.25 ppm, spray) was 50%, the mortality at 2.5 ppm ([2]; 2.5 ppm, spray) was 91% and the mortality at 5 ppm ([2]; 5 ppm, spray) was 100%. It also gave a mortality at 10 ppm ([2]; 10 ppm, spray) of 100%.
For `Cc1nn(C)c(/C(OC(=O)C(C)(C)C)=C(\C#N)c2ccc(C(C)(C)C)cc2)c1C` [KC1, cyenopyrafen, reference compound], the inhibition at 2.5 ppm [1] was 7%, the inhibition at 5 ppm [1] was 84% and the inhibition at 10 ppm [1] was 100%. For the same compound, the “insecticidal and acaricidal activity” value [5] was “good insecticidal and acaricidal activity”, the mortality at 1.25 ppm [2] was 30% and the mortality at 2.5 ppm [2] was 85%. For the same compound, the mortality at 5 ppm [2] was 100%, the mortality at 10 ppm [2] was 100% and the “Systemic activity … (mortality, %)” value (spider mites; 50 ppm) was 0%. The “Systemic activity … (mortality, %)” value (spider mites; 100 ppm) was 0%, the “Systemic activity … (mortality, %)” value (spider mites; 200 ppm) was 0% and the mortality at 0.16 ppm [3] was 20%. The mortality at 0.63 ppm [3] was 70% and the mortality at 2.5 ppm [3] was 82%.
Work on `Cc1nn(C)c(/C(OC(=O)C(C)(C)C)=C(/C#N)c2ccc(C(C)(C)C)cc2)c1C` [KC2, reference compound] yielded a mortality at 1.25 ppm [2] of 0%, a mortality at 2.5 ppm [2] of 55% and a mortality at 5 ppm [2] of 100%. For the same compound, the mortality at 10 ppm [2] was 100%.
For `CCc1nn(C)c(/C(OC(C)=O)=C(\C#N)c2ccc(C(C)(C)C)cc2)c1Cl` [KC3, reference compound], the mortality at 10 ppm [2] is listed as 5% and the “mortality against spider mite” value (spider mite) is listed as “more than 80%”.
